Each structure is given as a SMILES string.

One assay concerns R6/2 transgenic mice. Description: Body weight in R6/2 transgenic mouse model of Huntington's disease. The class given is in vivo. As to the method:
The rotarod test and body weight measurements were used to assess the therapeutic effects of clotrimazole in R6/2 transgenic mice. R6/2 and WT male mice at 4 weeks of age were trained 3 consecutive days on the accelerating rotarod. Each training day consisted of four sessions. After the training was complete, the animals were reassigned to new groups to create statistically homogenous cohorts. At 5 weeks of age, animals (n=10 per group) were dosed twice daily, intraperitoneally (IP) with clotrimazole at either 2 mg/kg or 10 mg/kg (equal to 4 and 20 mg/kg per day). Rotarod testing was performed at 6, 8, 10, and 12 weeks of age as described above. Body weights were collected every week.

Assay [1] relates to R6/2 mice. The experiment in a line: Cage climbing and rearing in R6/2 mice. In kind it is in vivo, mouse. The conditions noted are these: for Cage climbing: 12 weeks. From the text:
Cage climbing analysis involves filming a 10cm tall cylindrical cage into which an R6/2 (+/−drug) or WT mouse is placed. The mouse is allowed to move naturally ad libetum for a five minute session within the confines of the cage, while events such as rearing occurrences, climbing time and latency to climb are documented. Cage climbing and rearing data were collected at 12 weeks in this study.

Assay [2] concerns R6/2 mice. The experiment in a line: Gait analysis (DigiGait) in R6/2 mice. The class given is in vivo, mouse. From the text:
Gait analysis was also collected at 12 weeks, which is a time when clear differences have previously been described between R6/2 and wild-type. In this analysis, the DigiGait™ Imaging System, which is non-invasive, robust, and quantitative—in that it generates numerous indices of gait dynamics and posture—was used. The system simplifies kinematic observations and analyses by imaging the animals from below a transparent treadmill. Software, including artificial intelligence algorithms, quantifies the characteristics of gait, including step sequence patterns, stride length, cadence, and paw placement. The output also includes swing and stance durations, as well as braking and propulsion durations. Indices computed by DigiGait convey information about sensory and motor inputs modulating gait and gait variability.

[3] abbreviates: 4 and 20 mg/kg dosing, preliminary data.

As to `Clc1ccccc1C(c1ccccc1)(c1ccccc1)n1ccnc1` [clotrimazole], the “Body weight compared to vehicle-treated R6/2 mice” value with R6/2 transgenic mice (4 mg/kg IP-BID, 12 week of age, F test ANOVA) is given as “maintained a higher body weight”. Moreover, the Body weight effect result with R6/2 transgenic mice (20 mg/kg IP-BID, any time point tested) is given as “did not have a statistically significant effect”. The Weight in vivo entry in the assay with R6/2 transgenic mice (low dose of 4 mg/kg/day, preliminary data) was “positively affects”. Besides, the Cage climbing entry with R6/2 mice [1] (4 mg/kg (low dose)) and with R6/2 mice [1] (20 mg/kg (high dose)) was “Statistically significant improvement” in each case. For the same molecule, the “Motor performance by cage climbing and rearing” value with R6/2 mice [1] (setting [3]) is “significantly improved the motor performance”. In addition, in the assay with R6/2 mice [2] (setting [3]), the “Motor performance by gait analysis” value is recorded as “significantly improved the motor performance”. In addition, in the assay on R6/2 mice [2] (gait analysis at 12 weeks), the Swing ratio score entry was “significantly improved”.

Source of the values: US20070037800A1, “Method of treating neurological disorders using clotrimazole and derivatives thereof” (EnVivo Pharmaceuticals, Inc., priority 2005, published 2007).
